According to US9889135B2, “Companion diagnostic for CDK4 inhibitors” (Memorial Sloan-Kettering Cancer Center, priority 2013, dated 2018):

Columns and labels:
[1] = system: Glioma (U87MG, U251, SNB19, DBTRG-05MG) and breast cancer (MDA453, T47D, ZR-75-1, and MCF7) cells; test: SA-β-gal senescence in glioma and breast cancer cell lines; assay type: cell-based; details: eight cell lines, some p53 and/or INK4 mutant
Source text: FIG. 19A-C. Senescence associated with the downregulation of MDM2 is p53 and INK4 independent. […] This experiment was repeated three times with similar results in both LS8817 and LS141. […] The p53 mutational status of these cell lines (WT, wild type; R273H and L194F, missense mutations; if-DEL, in-frame deletion of 30 nucleotides at amino acid 368) were obtained from the p53 mutation database and the RIKEN bioresource databank and is consistent with the detection of p21 by immunoblot. (C) SNB19 cells, a p53 mutant and INK4A deficient cell, was transduced with the mutants described in panel A and their effect on senescence determined.
Cells were plated at a concentration of 25,000 per well in a 4-well chamber slides (Lab-Tek) and treated for seven days with drug and stained for senescence-associated β-galactosidase (Cell Signaling kit #9860). Cell number was quantitated by DAPI staining and β-galactosidase staining quantitated as a proportion of total cells.

[2] = system: RB-negative cells; details: cited from earlier work

## CC(=O)c1c(C)c2cnc(Nc3ccc(N4CCNCC4)cn3)nc2n(C2CCCC2)c1=O [PD0332991]
[1]
  senescence as measured by accumulation of SA-β-gal: All of the cell lines underwent senescence
[2]
  proliferation of RB-negative cells: no effect
